Source: the supplement of paper PMC13380429

Columns and labels:
Conditions in all cases: 72 h
U2OS [1] = assay: drug sensitivity score (DSS) for viability; higher = more toxic; extreme values may be limits of the assay
Vero E6 [2] = assay: as above
Calu-3 [3] = assay: as above
Caco-2 [4] = assay: as above
U2OS [5] = assay: relative viability EC50 (midpoint between 100% and the lowest measured viability); higher = less toxic
Vero E6 [6] = assay: as above
Calu-3 [7] = assay: as above
Caco-2 [8] = assay: as above
U2OS [9] = assay: cell viability relative to DMSO; higher = less toxic
Vero E6 [10] = assay: as above
Calu-3 [11] = assay: as above
Caco-2 [12] = assay: as above
HepG2 [13] = assay: drug sensitivity score (DSS) for viability; higher = more toxic; extreme values may be limits of the assay
HepG2 [14] = assay: cell viability relative to DMSO; higher = less toxic
HepG2 [15] = assay: relative viability EC50 (midpoint between 100% and the lowest measured viability); higher = less toxic

SMILES	drug sensitivity score (U2OS [1])	drug sensitivity score (Vero E6 [2])	drug sensitivity score (Calu-3 [3])	drug sensitivity score (Caco-2 [4])	relative viability EC50 (U2OS [5])	relative viability EC50 (Vero E6 [6])	relative viability EC50 (Calu-3 [7])	relative viability EC50 (Caco-2 [8])	cell viability (U2OS [9]; 1 nM)	cell viability (U2OS [9]; 10 nM)	cell viability (U2OS [9]; 100 nM)	cell viability (U2OS [9]; 1000 nM)	cell viability (U2OS [9]; 10000 nM)	cell viability (Vero E6 [10]; 1 nM)	cell viability (Vero E6 [10]; 10 nM)	cell viability (Vero E6 [10]; 100 nM)	cell viability (Vero E6 [10]; 1000 nM)	cell viability (Vero E6 [10]; 10000 nM)	cell viability (Calu-3 [11]; 1 nM)	cell viability (Calu-3 [11]; 10 nM)	cell viability (Calu-3 [11]; 100 nM)	cell viability (Calu-3 [11]; 1000 nM)	cell viability (Calu-3 [11]; 10000 nM)	cell viability (Caco-2 [12]; 1 nM)	cell viability (Caco-2 [12]; 10 nM)	cell viability (Caco-2 [12]; 100 nM)	cell viability (Caco-2 [12]; 1000 nM)	cell viability (Caco-2 [12]; 10000 nM)	drug sensitivity score (HepG2 [13])	cell viability (HepG2 [14]; 1 nM)	cell viability (HepG2 [14]; 10 nM)	cell viability (HepG2 [14]; 100 nM)	cell viability (HepG2 [14]; 1000 nM)	cell viability (HepG2 [14]; 10000 nM)	relative viability EC50 (HepG2 [15])
C[C@]12CCC(=O)C=C1CC[C@@H]1[C@@H]2CC[C@@]2(C)[C@H]1CC[C@]2(O)C(=O)CO [cortodoxone]	0	0	0	0	> 10 µM	> 10 µM	> 10 µM	> 10 µM	92.9%	95.2%	96.6%	99.6%	98.7%	108%	108%	105%	97.6%	96.8%	106%	91%	95.2%	97.8%	104%	89.6%	95.5%	100%	86.5%	103%							
CN(C)/N=N/c1[nH]cnc1C(N)=O [dacarbazine]	0	0	0	0	> 10 µM	> 10 µM	> 10 µM	> 10 µM	97.7%	99.2%	94.9%	102%	92.7%	98.6%	94.2%	94.4%	97.2%	100%	91.9%	102%	95.9%	110%	95.7%	100%	97.8%	97%	103%	93.4%	2.3	106%	90.7%	99.2%	90.5%	72.7%	
Cc1cc(C)c(Nc2ccnc(Nc3ccc(C#N)cc3)n2)c(C)c1 [dapivirine]	3.4	2.8	1	4.9	3.05 µM			1.49 µM	97.7%	100%	101%	99%	40.3%	93.7%	101%	92.9%	94.7%	61.5%	108%	100%	97.1%	100%	74.4%	104%	94.5%	99.3%	86%	47.8%	4.3	107%	120%	95.4%	103%	17.3%	3.38 µM
Oc1ccc([C@@H]2Oc3ccc(O)cc3[C@@H]3CCC[C@@H]32)cc1 [erteberel]	0.5	0	0	0	> 10 µM	> 10 µM	> 10 µM	> 10 µM	97.5%	95.6%	102%	98.9%	82.9%	94.8%	99%	92.5%	99.4%	87.8%	108%	109%	108%	98.3%	102%	95.4%	94.4%	96.7%	92.8%	86.8%	2	102%	101%	97.6%	108%	52.4%	
